Target: T1, full-length human AR (Homo sapiens, UniProt P10275)
T1 construct: expression vector encoding full-length human AR; expressed in transfected cells; host or cells: HEK293 (hAR/HEK293 cells)
T1 sequence (P10275 1-920): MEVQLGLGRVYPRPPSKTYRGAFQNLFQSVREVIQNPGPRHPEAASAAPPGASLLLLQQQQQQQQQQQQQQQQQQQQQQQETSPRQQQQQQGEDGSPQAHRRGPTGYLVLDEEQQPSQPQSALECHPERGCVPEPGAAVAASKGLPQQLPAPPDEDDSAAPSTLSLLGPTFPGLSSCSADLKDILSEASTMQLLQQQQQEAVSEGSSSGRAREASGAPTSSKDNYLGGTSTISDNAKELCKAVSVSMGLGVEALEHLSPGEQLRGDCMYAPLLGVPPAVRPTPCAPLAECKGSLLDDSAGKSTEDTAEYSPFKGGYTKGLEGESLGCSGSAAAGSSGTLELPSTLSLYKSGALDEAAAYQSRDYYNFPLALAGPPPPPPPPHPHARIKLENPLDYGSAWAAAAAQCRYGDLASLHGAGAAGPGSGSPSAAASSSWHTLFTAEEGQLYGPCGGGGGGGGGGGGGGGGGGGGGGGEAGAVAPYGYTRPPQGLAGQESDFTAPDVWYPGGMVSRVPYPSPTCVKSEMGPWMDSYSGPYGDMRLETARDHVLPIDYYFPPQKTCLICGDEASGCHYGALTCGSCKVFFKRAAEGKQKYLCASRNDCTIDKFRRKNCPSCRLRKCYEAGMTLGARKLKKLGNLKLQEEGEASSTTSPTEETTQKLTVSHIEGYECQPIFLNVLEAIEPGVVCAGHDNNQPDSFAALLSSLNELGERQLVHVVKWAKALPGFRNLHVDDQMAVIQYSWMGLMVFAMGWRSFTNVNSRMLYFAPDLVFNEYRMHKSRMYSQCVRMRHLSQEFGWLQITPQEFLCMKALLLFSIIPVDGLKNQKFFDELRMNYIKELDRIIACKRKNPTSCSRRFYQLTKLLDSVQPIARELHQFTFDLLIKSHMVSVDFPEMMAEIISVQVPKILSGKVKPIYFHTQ
Experiment: AR antagonism, reporter gene assay in hAR/HEK293 cells
Format: cell-based
Details: HEK293 cells stably transfected with full-length human AR and androgen responsive luciferase reporter; co-treated with submaximal testosterone (usually 0.45 nM); 1% DMSO; triplicates
Protocol: Antagonism of test compounds for AR was measured by reporter gene assay in human embryonic kidney (HEK293) cells stably transfected with an expression vector encoding full-length human AR and androgen responsive luciferase reporter gene construct (hAR/HEK293 cells). To determine antagonism for hAR, the cells were treated simultaneously with increasing concentrations of the test compound and submaximal concentration of testosterone (usually 0.45 nM). The final DMSO concentration was 1%. All test compounds were studied in triplicates. The cells were incubated for […] before measurement of luciferase activity using Luciferase Assay System (Promega Corporation).

SMILES | IC50 [nM]
CCN(c1ccc(C#N)c(C(F)(F)F)c1)C1CCCC(n2ccnc2)C1 (single isomer, unassigned) [Ex. 72 cis-enantiomer 2, 4-((3-(1H-imidazol-1-yl)cyclohexyl)(ethyl)amino)-2-(trifluoromethyl)benzonitrile] | 27
CCN(c1ccc(C#N)c(C(F)(F)F)c1)C1CCCC(O)(c2cccnc2)C1 (single isomer, unassigned) [Ex. 216 diastereomer 2, 4-(Ethyl(3-hydroxy-3-(pyridin-3-yl)cyclohexyl)amino)-2-(trifluoromethyl)-benzonitrile] | 28
CN(c1ccc(C#N)c(C(F)(F)F)c1)C1C=C(c2cncs2)CCC1 (single isomer, unassigned) [Ex. 232 enantiomer 1, 4-(Methyl(3-(thiazol-5-yl)cyclohex-2-en-1-yl)amino)-2-(trifluoromethyl)-benzonitrile] | 33
CCN(c1ccc(C#N)c(C(F)(F)F)c1)C1CC=C(c2cnco2)C1 (single isomer, unassigned) [Ex. 233 enantiomer 2, 4-(Ethyl(3-(oxazol-5-yl)cyclopent-3-enyl)amino)-2-(trifluoromethyl)benzonitrile] | 29
CCN(c1ccc(C#N)c(Cl)c1)C1CCCC(c2cccnc2)C1 (single isomer, unassigned; diastereomer 2) [Ex. 76 cis-diastereomer, 2-Chloro-4-(ethyl(3-(pyridin-3-yl)cyclohexyl)amino)benzonitrile] | 1
CCN(c1ccc(C#N)c(Cl)c1)C1CCCC(c2cncc(OC)c2)C1 (single isomer, unassigned; diastereomer 2) [Ex. 83 cis-diastereomer, 2-Chloro-4-(ethyl(3-(5-methoxypyridin-3-yl)cyclohexyl)amino)benzonitrile] | 16
CCN(c1ccc(C#N)c(C(F)(F)F)c1)C1CCCC(c2nnco2)C1 (single isomer, unassigned; diastereomer 4) [Ex. 19 cis-diastereomer, 4-((3-(1,3,4-Oxadiazol-2-yl)cyclohexyl)(ethyl)amino)-2-(trifluoromethyl)benzonitrile] | 65
CCN(c1ccc(C#N)c(C(F)(F)F)c1)C1CCCC(n2cccn2)C1 (single isomer, unassigned; diastereomer 4) [Ex. 48 cis-diastereomer, 4-((-3-(1H-Pyrazol-1-yl)cyclohexyl)(ethyl)amino)-2-(trifluoromethyl)benzonitrile] | 24
CCN(c1ccc(C#N)c(C(F)(F)F)c1)C1CCCC(c2nnn(C)n2)C1 (single isomer, unassigned; isomer 4) [Ex. 11 cis of 2,5-isomer, 4-(Ethyl(3-(2-methyl-2H-tetrazol-5-yl)cyclohexyl)amino)-2-(trifluoromethyl)benzonitrile] | 26
CCN(c1ccc(C#N)c(C(F)(F)F)c1)C1CCC=C(c2ccncc2)C1 (centres unmarked) [Ex. 77, 4-(Ethyl(3-(pyridin-4-yl)cyclohex-3-en-1-yl)amino)-2-(trifluoromethyl)benzonitrile] | 40
CCN(c1cc(F)c(C#N)c(Cl)c1)C1CCC=C(c2cccnc2)C1 (centres unmarked) [Ex. 132, 2-Chloro-4-(ethyl(3-(pyridin-3-yl)cyclohex-3-en-1-yl)amino)-6-fluorobenzonitrile] | 7
CCN(c1ccc(C#N)c(C(F)(F)F)c1)C1C=C(n2cncn2)CCC1 (centres unmarked) [Ex. 210, 4-((3-(1H-1,2,4-triazol-1-yl)cyclohex-2-en-1-yl)(ethyl)amino)-2-(trifluoromethyl)benzonitrile] | 23
CCN(c1ccc(C#N)c(C(F)(F)F)c1)C1CCCC(n2ccnn2)C1 (stereo not drawn) [Ex. 223, 4-((3-(1H-1,2,3-triazol-1-yl)cyclohexyl)(ethyl)amino)-2-(trifluoromethyl)-benzonitrile (cis-diastereomer)] | 79
CN(c1ccc(C#N)c(C(F)(F)F)c1)[C@@H]1C=C(n2ccnc2)[C@@H](O)CC1(C)C [Ex. 262, 4-(((1R,4S)-4-hydroxy-3-(1H-imidazol-1-yl)-6,6-dimethylcyclohex-2-en-1-yl)(methyl)-amino)-2-(trifluoromethyl)benzonitrile] | 89
